The source of these data is ChEMBL document CHEMBL1139872, “A high-throughput screen for aggregation-based inhibition in a large compound library” (J Med Chem, 2007).

Where only a bound is given, the exact number is not on record here.

The target in assay [1] is T1, Beta-lactamase (Escherichia coli K-12, UniProt P00811).
Description: Aggregate based-inhibition of Escherichia coli AmpC beta lactamase using stringent assay conditions in presence of 0.01% Triton X-100 detergent
Assay [2] addresses T1, Beta-lactamase. As to the kind of experiment: Inhibition of Escherichia coli AmpC beta lactamase using relaxed assay conditions in presence of 0.00001% Triton X-100 detergent.

T1 sequence (P00811 whole entry): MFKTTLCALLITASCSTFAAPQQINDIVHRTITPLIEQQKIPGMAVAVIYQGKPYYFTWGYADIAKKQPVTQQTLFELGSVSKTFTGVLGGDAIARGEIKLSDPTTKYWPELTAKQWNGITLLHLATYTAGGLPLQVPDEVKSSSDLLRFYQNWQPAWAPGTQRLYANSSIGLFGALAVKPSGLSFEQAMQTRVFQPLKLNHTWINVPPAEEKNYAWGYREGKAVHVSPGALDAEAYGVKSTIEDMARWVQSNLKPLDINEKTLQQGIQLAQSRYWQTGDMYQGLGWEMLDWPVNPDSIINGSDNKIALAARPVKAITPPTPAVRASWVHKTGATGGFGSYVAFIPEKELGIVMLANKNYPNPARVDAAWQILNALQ

Broadly, the IC50 is the point on the concentration scale where inhibition reaches its midpoint. As for `Fc1c(F)c(F)c(CSc2nc3ccccc3[nH]2)c(F)c1F`, the IC50 against Beta-lactamase [1] was > 300 µM; on Beta-lactamase [2] it was 130 µM.

For the compound `Cc1ccc2nc(-c3ccccc3)cc(O)c2c1`, the IC50 against Beta-lactamase [1] and on Beta-lactamase [2] was > 100 µM throughout.

With `O=C(Nc1ccc(Oc2ccc(NC(=O)c3ccco3)c(NC(=O)c3ccco3)c2)cc1)c1ccco1`, the IC50 against Beta-lactamase [1] came out at 40 µM; on Beta-lactamase [2], 20 µM.

Take `O=C(Nc1cccc2ccccc12)c1ccc(Br)o1`: the IC50 against Beta-lactamase [1] is > 200 µM; at Beta-lactamase [2] it was 120 µM.

For `COc1c(F)c(F)c(C(=O)Nc2ccc(NC(=O)c3ccco3)cc2)c(F)c1F`, the IC50 is > 66 µM against Beta-lactamase [1] and 20 µM at Beta-lactamase [2].

As to `Cc1cccc(OCC(=O)Nc2cccc(-c3nnc(-c4ccccc4)o3)c2)c1C`, the IC50 at Beta-lactamase [1] was > 66 µM; on Beta-lactamase [2], 13 µM.

For `O=c1[nH]c2cc(Cl)ccc2c(O)c1-c1cccc(Oc2ccccc2)c1`, the IC50 against Beta-lactamase [1] was 126 µM; at Beta-lactamase [2], 22 µM.

Turning to `Clc1ccccc1C(c1ccccc1)(c1ccccc1)n1ccnc1` [CLOTRIMAZOLE], the concentration for half-maximal inhibition (IC50) against Beta-lactamase [1] came out at 150 µM; at Beta-lactamase [2], 35 µM.

With `Cc1cc2c(C(C)C)c(O)c(O)c(C=O)c2c(O)c1-c1c(C)cc2c(C(C)C)c(O)c(O)c(C=O)c2c1O` [GOSSYPOL], the half-maximal inhibitory concentration (IC50) against Beta-lactamase [1] worked out at 82 µM; on Beta-lactamase [2] it was 46 µM.

Regarding `Clc1ccc(CSC(Cn2ccnc2)c2ccc(Cl)cc2Cl)cc1` (stereo not given) [SULCONAZOLE], the figures for the IC50 against Beta-lactamase [1] and on Beta-lactamase [2] were 100 µM and 20 µM, respectively.
